Results as given in PMC12164026, “Plant-derived nodule-specific cysteine-rich peptides as potent antifungal agents against Cryptococcus neoformans: mechanisms of action, chimeric peptide enhancement, and immunomodulatory effects” (Current Research in Microbial Sciences, 2025).
In brackets after ≈: the same amount, converted by molar mass. Like-named read-outs stand apart in the source and are kept apart here. Bridge positions count the residues as written; N and C are the ends. Peptide text beside a SMILES is read from it.

Columns and labels:
[1] = tested on: Cryptococcus neoformans IFM 5844; experiment: microbe, parasite or virus in culture; type: cell-based; details: five-fold diluted YNB + 1 % dextrose, 5 × 10^4 cells/mL, 30 °C, 72 h, OD 620 nm, ≥ 90 % growth inhibition, tested 25 to 0.39 µM, three biological replicates
Procedure: (§1) The susceptibility of Cryptococcus neoformans IFM 5844 to 20 peptides (Supplementary Table 1) was tested in a widely used synthetic medium to cultivate yeasts (YNB) and in a serum-free medium what is able to support the proliferation of macrophage cells (X-VIVO).
YNB medium: five-fold diluted Difco Yeast Nitrogen Base w/o Amino Acids medium (Becton, Dickinson and Company, Sparks, MD, USA) supplemented with 1 % dextrose
(§2) The minimal inhibitory concentration (MIC) of each peptide was determined by using micro-dilution assay. The C. neoformans suspensions were adjusted to 5 × 10^4 cells/mL concentration in either YNB or X-VIVO medium. A 96-well microtiter plate was prepared by adding 95 µL suspension per well followed by 5 µL of serially two-fold diluted peptide solutions achieving a final volume of 100 µl. The concentration of the peptides ranged from 25 to 0.39 µM. For control samples, 5 µL pure medium was added to the yeast cell suspension instead of peptides. Plates were incubated at 37 °C for 48 h in X-VIVO medium and 30 °C for 72 h in YNB medium. After incubation, optical density was measured at 620 nm using a SPECTROstar Nano plate reader (BMG LabTech, Offenburg, Germany). […] The experiments were carried out in three independent biological replicates.

[2] = tested on: C. neoformans IFM 5844 cells; experiment: Cell membrane permeability, calcein-AM assay by flow cytometry; type: cell-based, Cryptococcus neoformans; details: half-MIC, 2 h, 30 °C, YNB
Procedure: The effect of the peptides on the cell membrane permeability of C. neoformans IFM 5844 cells was checked by flow cytometry with calcein-AM assay ([Olson, et al., 2001]). Calcein-acetoxymethyl ester (calcein-AM) is a membrane-permeable live-cell dye that, upon entering the cell, is cleaved by intracellular esterases, converting it into calcein, a membrane-impermeable fluorescent marker. The assay was carried out by suspending a total of 1 × 10^7 cells in 100 µl YNB medium containing 20 µg/mL indomethacin (Sigma-Aldrich, Saint Louis, MO, USA) and incubating them at 30 °C for 30 min to inhibit calcein transporters. Following this pre-treatment, membrane-permeable calcein-AM (Invitrogen, Waltham, MA, USA) was added to a final concentration of 5 µg/mL, and the samples were incubated at 30 °C for 3 h allowing the calcein-AM to enter the cells where esterases converted it to fluorescent calcein. After incubation, cells were washed twice with sterile distilled water and subsequently exposed to peptides at half-MIC concentrations in YNB medium for 2 h at 30 °C. Following peptide treatment, cells were washed twice with sterile distilled water, and fluorescence intensity was measured using a FlowSight® flow cytometer (Amnis-EMD Millipore) equipped with a 488-nm excitation laser. Intact cells stained with calcein-AM but not exposed to peptides served as controls. To ensure statistical reliability, four independent experiments were conducted, and fluorescence intensity was recorded from 10,000 cells per sample during each experiment.

[3] = tested on: Cryptococcus neoformans IFM 5844; type: cell-based; details: half-diluted X-VIVO 15 medium, 37 °C, 48 h, OD 620 nm, ≥ 90 % growth inhibition, tested 25 to 0.39 µM, three biological replicates
Procedure: as §1
X-VIVO medium: half-diluted X-VIVO™ 15 cell culture medium (Lonza, Verviers, Belgium).
as §2

[4] = tested on: Cryptococcus neoformans IFM 5844; experiment: Minimal fungicidal concentration (MFC) determination, spotting on YPD; type: cell-based; details: cultures from MIC assays diluted and spotted onto solid YPD, 30 °C, 48 h
Procedure: Minimal fungicidal concentration (MFC) determination. To assess fungicidal activity, both control and peptide-treated cultures from the MIC assays were diluted 10-fold and 100-fold in sterile distilled water. Five µL from each dilution was then spotted onto solid YPD medium (1 % pepton, 1 % dextrose, 0.5 % yeast extract, 2 % agar). The plates were incubated at 30 °C for 48 h and fungal growth was evaluated. MFC was defined as the lowest peptide concentration at which no visible fungal growth was detected, indicating complete fungicidal activity.

[5] = Cryptococcus neoformans, IFM5844, read-out: MIC

Compound	MIC [1]	fungistatic or fungicide mode of action [4]	MIC ([1]; read-out: MIC) [µM]	other results
HFSLILSD [NCR335C1–8, short derivative of NCR335 C-terminal region]	lacked inhibitory effect			
CKTNKDCP [NCR335C9–16, short derivative of NCR335 C-terminal region]	lacked inhibitory effect			
CC[C@H](C)[C@H](NC(=O)[C@H](CCCCN)NC(=O)[C@H](CCCCN)NC(=O)[C@H](C)NC(=O)[C@H](CC(C)C)NC(=O)[C@H](C)NC(=O)[C@H](C)NC(=O)[C@H](CC(C)C)NC(=O)[C@H](C)NC(=O)[C@@H](N)CCCCN)C(=O)N[C@@H](CC(C)C)C(=O)N[C@@H](CCC(N)=O)C(=O)N[C@@H](CCC(N)=O)C(=O)N[C@@H](CS)C(=O)N[C@@H](CCCNC(=N)N)C(=O)N[C@@H](CCCNC(=N)N)C(=O)N1CCC[C@H]1C(=O)N[C@@H](CC(C)C)C(=O)N[C@@H](Cc1ccc(O)cc1)C(=O)N[C@@H](CS)C(=O)N[C@@H](CCCNC(=N)N)C(=O)N[C@@H](CCCNC(=N)N)C(=O)N[C@@H](CCCNC(=N)N)C(N)=O [X2-NCR247C] (H-KALAALAKKILQQCRRPLYCRRR-NH2; N-terminus assumed)		fungicidal effect	0.78	calcein leakage / membrane permeability disruption [2]: highest calcein leakage; MIC [3]: 3.12 µM (≈ 8.6 µg/mL)
CC[C@H](C)[C@H](NC(=O)[C@@H]1CCCN1C(=O)[C@@H](NC(=O)[C@H](CS)NC(=O)[C@H](Cc1ccc(O)cc1)NC(=O)[C@H](CO)NC(=O)[C@H](CCCCN)NC(=O)[C@H](CCCNC(=N)N)NC(=O)[C@H](CS)NC(=O)[C@H](CCCNC(=N)N)NC(=O)[C@@H](NC(=O)[C@H](CC(N)=O)NC(=O)[C@H](C)NC(=O)[C@H](CCCNC(=N)N)NC(=O)[C@H](CCCNC(=N)N)NC(=O)[C@H](CC(C)C)NC(=O)[C@H](CCCCN)NC(=O)[C@@H]1CCCN1C(=O)[C@H](CS)NC(=O)[C@H](CC(=O)O)NC(=O)[C@H](CCCCN)NC(=O)[C@H](CC(N)=O)NC(=O)[C@@H](NC(=O)[C@H](CCCCN)NC(=O)[C@H](CS)NC(=O)[C@H](CC(=O)O)NC(=O)[C@H](CO)NC(=O)[C@H](CC(C)C)NC(=O)[C@@H](NC(=O)[C@H](CC(C)C)NC(=O)[C@H](CO)NC(=O)[C@H](Cc1ccccc1)NC(=O)[C@@H](N)Cc1c[nH]cn1)[C@@H](C)CC)[C@@H](C)O)C(C)C)C(C)C)C(N)=O [NCR335C1–33] (H-HFSLILSDCKTNKDCPKLRRANVRCRKSYCVPI-NH2; N-terminus assumed)		fungicidal effect		
CC(C)C[C@H](NC(=O)[C@@H]1CCCN1C(=O)[C@H](CCCNC(=N)N)NC(=O)[C@H](CCCNC(=N)N)NC(=O)[C@H](CS)NC(=O)[C@H](CCC(N)=O)NC(=O)[C@@H](N)CCC(N)=O)C(=O)N[C@@H](Cc1ccc(O)cc1)C(=O)N[C@@H](CS)C(=O)N[C@@H](CCCNC(=N)N)C(=O)N[C@@H](CCCNC(=N)N)C(=O)N[C@@H](CCCNC(=N)N)C(N)=O [NCR247C] (H-QQCRRPLYCRRR-NH2; N-terminus assumed)		fungicidal effect	6.25	calcein leakage / membrane permeability disruption [2]: highest calcein leakage
C[C@@H]1[C@H](O)[C@@H](C)/C=C/C=C/C=C/C=C/C=C/C=C/C=C/[C@H](O[C@@H]2O[C@H](C)[C@@H](O)[C@H](N)[C@@H]2O)C[C@@H]2O[C@](O)(C[C@@H](O)C[C@@H](O)[C@H](O)CC[C@@H](O)C[C@@H](O)CC(=O)O[C@H]1C)C[C@H](O)[C@H]2C(=O)O [amphotericin B, reference compound]				MIC [1, 5]: 1.56 µM
OC(Cn1cncn1)(Cn1cncn1)c1ccc(F)cc1F [Fluconazole, fluconazole, reference compound]				MIC [1, 5]: 12.5 µM
KLRRANVRCRK [NCR335C17–27, further truncation of NCR335C17–33]	lacked inhibitory effect			
CC[C@H](C)[C@H](NC(=O)[C@H](CCCCN)NC(=O)[C@H](Cc1ccccc1)NC(=O)[C@H](CC(C)C)NC(=O)[C@@H]1CCCN1C(=O)[C@H](CCCCN)NC(=O)[C@H](CCCCN)NC(=O)[C@H](CO)NC(=O)[C@@H](N)CCCCN)C(=O)N[C@@H](C)C(=O)N[C@@H](CCCCN)C(=O)N[C@@H](CS)C(=O)N[C@H](C(=O)N[C@@H](CCC(=O)O)C(=O)N[C@@H](CC(N)=O)C(=O)N[C@H](C(=O)N[C@@H](CS)C(=O)N[C@H](C(=O)N[C@@H](CC(C)C)C(=O)N[C@@H](C)C(=O)N[C@@H](Cc1ccc(O)cc1)C(=O)N[C@@H](CCCCN)C(N)=O)C(C)C)C(C)C)C(C)C [NCR169C17–38W10,20/A] (H-KSKKPLFKIAKCVENVCVLAYK-NH2; N-terminus assumed)		fungicidal effect	6.25	calcein leakage / membrane permeability disruption [2]: highest calcein leakage
RLNTTFRPLNFKMLRFWGQNRNIMKHRGQKVHFSLILSDCKTNKDCPKLRRANVRCRKSYCVPI [NCR335, 64-amino-acid-long cationic M. truncatula NCR peptide]			3.12	
FWGQNRNIMKHRGQ [NCR335N16–29, 14 amino acid-long N-terminal fragment of NCR335]	ineffective			
HFSLILSDCKTNKDCP [NCR335C1–16, short derivative of NCR335 C-terminal region]	lacked inhibitory effect			
CC[C@H](C)[C@H](NC(=O)[C@H](CCCCN)NC(=O)[C@H](Cc1ccccc1)NC(=O)[C@H](CC(C)C)NC(=O)[C@@H]1CCCN1C(=O)[C@H](CCCCN)NC(=O)[C@H](CCCCN)NC(=O)[C@H](CO)NC(=O)[C@@H](N)CCCCN)C(=O)N[C@@H](Cc1c[nH]c2ccccc12)C(=O)N[C@@H](CCCCN)C(=O)N[C@H]1CSSC[C@@H](C(=O)N[C@H](C(=O)N[C@@H](CC(C)C)C(=O)N[C@@H](Cc2c[nH]c3ccccc23)C(=O)N[C@@H](Cc2ccc(O)cc2)C(=O)N[C@@H](CCCCN)C(N)=O)C(C)C)NC(=O)[C@H](C(C)C)NC(=O)[C@H](CC(N)=O)NC(=O)[C@H](CCC(=O)O)NC(=O)[C@H](C(C)C)NC1=O [NCR169C17–38ox] (H-KSKKPLFKIWKCVENVCVLWYK-NH2; disulfide 12-17; N-terminus assumed)		fungicidal effect	3.12	
CC[C@H](C)[C@H](NC(=O)[C@H](CCCCN)NC(=O)[C@H](Cc1ccccc1)NC(=O)[C@H](CC(C)C)NC(=O)[C@@H]1CCCN1C(=O)[C@H](CCCCN)NC(=O)[C@H](CCCCN)NC(=O)[C@H](CO)NC(=O)[C@@H](N)CCCCN)C(=O)N[C@@H](Cc1c[nH]c2ccccc12)C(=O)N[C@@H](CCCCN)C(=O)N[C@@H](CS)C(=O)N[C@H](C(=O)N[C@@H](CCC(=O)O)C(=O)N[C@@H](CC(N)=O)C(=O)N[C@H](C(=O)N[C@@H](CS)C(=O)N[C@H](C(=O)N[C@@H](CC(C)C)C(=O)N[C@@H](Cc1c[nH]c2ccccc12)C(=O)N[C@@H](Cc1ccc(O)cc1)C(=O)N[C@@H](CCCCN)C(N)=O)C(C)C)C(C)C)C(C)C [NCR169C17–38] (H-KSKKPLFKIWKCVENVCVLWYK-NH2; N-terminus assumed)		fungicidal effect	3.12	calcein leakage / membrane permeability disruption [2]: highest calcein leakage
